# Assay results taken from patent publication US7928098B2, “Therapeutic and/or preventive agents for a sleep disorder” (Kyowa Hakko Kirin Co., Ltd., priority 2005, dated 2011).
row,melting point,SMILES
1,178 to 182 °C,"CC(C)C(=O)c1sc(NC(=O)C2CC2)nc1-c1ccco1 [Compound 301, N-[4-(2-Furyl)-5-isobutyrylthiazol-2-yl]cyclopropanecarboxamide]"
2,240 to 245 °C,"CC(C)(C)C(=O)c1sc(NC(=O)c2ccncc2)nc1-c1ccco1 [Compound 306, N-[4-(2-Furyl)-5-pivaloylthiazol-2-yl]pyridine-4-carboxamide]"
3,133 to 134 °C,"CC(C)(C)C(=O)c1sc(NC(=O)C2CC2)nc1-c1ccco1 [Compound 307, N-[4-(2-Furyl)-5-pivaloylthiazol-2-yl]cyclopropanecarboxamide]"
4,174 to 183 °C,"COCC(=O)c1sc(NC(=O)c2ccc(Cl)nc2)nc1-c1ccco1 [Compound 310, 2-Chloro-N-[4-(2-furyl)-5-(methoxyacetyl)thiazol-2-yl]pyridine-5-carboxamide]"
5,166 to 167 °C,"COCC(=O)c1sc(NC(=O)c2ccc(F)cc2)nc1-c1ccco1 [Compound 311, 4-Fluoro-N-[4-(2-furyl)-5-(methoxyacetyl)thiazol-2-yl]benzamide]"
6,198 to 200 °C,"COCC#CC(=O)c1sc(NC(=O)c2ccncc2)nc1-c1ccco1 [Compound 319, N-[4-(2-Furyl)-5-(3-methoxyprop-1-ynylcarbonyl)thiazol-2-yl]pyridine-4-carboxamide]"
7,225 to 230 °C (dec.),"O=C(Nc1nc(-c2ccco2)c(C(=O)C2CC2)s1)c1ccncc1 [Compound 323, N-[5-(Cyclopropylcarbonyl)-4-(2-furyl)thiazol-2-yl]pyridine-4-carboxamide]"
8,150 to 154 °C,"COc1ccccc1C(=O)Nc1nc(-c2ccco2)c(C(=O)C2CC2)s1 [Compound 326, N-[5-(Cyclopropylcarbonyl)-4-(2-furyl)thiazol-2-yl]-2-methoxybenzamide]"
9,125 to 160 °C (dec.),"Nc1nc(-c2ccco2)c(C(=O)C2CCC2)s1 [Compound 329, 2-Amino-4-(2-furyl)thiazol-5-yl cyclobutyl ketone]"
10,227 to 235 °C (dec.),"O=C(Nc1nc(-c2ccco2)c(C(=O)C2CCC2)s1)c1ccncc1 [Compound 330, N-[5-(Cyclobutylcarbonyl)-4-(2-furyl)thiazol-2-yl]pyridine-4-carboxamide]"
11,188 to 192 °C,"O=C(Nc1nc(-c2ccco2)c(C(=O)C2CCC2)s1)c1ccco1 [Compound 331, N-[5-(Cyclobutylcarbonyl)-4-(2-furyl)thiazol-2-yl]furan-2-carboxamide]"
12,220 to 225 °C,"N#Cc1ccc(C(=O)Nc2nc(-c3ccco3)c(C(=O)C3CCC3)s2)cc1 [Compound 332, 4-Cyano-N-[5-(cyclobutylcarbonyl)-4-(2-furyl)thiazol-2-yl]benzamide]"
13,200 to 205 °C,"O=C(Nc1nc(-c2ccco2)c(C(=O)C2CCC2)s1)C1CC1 [Compound 333, N-[5-(Cyclobutylcarbonyl)-4-(2-furyl)thiazol-2-yl]cyclopropanecarboxamide]"
14,182 to 187 °C,"O=C(Nc1nc(-c2ccco2)c(C(=O)C2CCCC2)s1)C1CC1 [Compound 339, N-[5-(Cyclopentylcarbonyl)-4-(2-furyl)thiazol-2-yl]cyclopropanecarboxamide]"
15,108 to 110 °C,"O=C(c1sc(NC(=O)N2CCOCC2)nc1-c1ccco1)C1CCCC1 [Compound 340, N-[5-(Cyclopentylcarbonyl)-4-(2-furyl)thiazol-2-yl]morpholine-4-carboxamide]"
16,197 to 199 °C,"O=C(Nc1nc(-c2ccco2)c(C(=O)C2CCCCC2)s1)c1ccncc1 [Compound 344, N-[5-(Cyclohexylcarbonyl)-4-(2-furyl)thiazol-2-yl]pyridine-4-carboxamide]"
17,180 to 187 °C,"COC1CCC(C(=O)c2sc(NC(=O)c3ccncc3)nc2-c2ccco2)CC1 (centres unmarked) [Compound 347, N-[4-(2-Furyl)-5-(4-methoxycyclohexylcarbonyl)thiazol-2-yl]pyridine-4-carboxamide]"
18,105 to 109 °C,"COC1CCC(C(=O)c2sc(NC(=O)c3ccc(C#N)cc3)nc2-c2ccco2)CC1 (centres unmarked) [Compound 348, 4-Cyano-N-[4-(2-furyl)-5-(4-methoxycyclohexylcarbonyl)-thiazol-2-yl]benzamide]"
19,206 to 212 °C,"O=C1CCC(C(=O)c2sc(NC(=O)c3ccncc3)nc2-c2ccco2)CC1 [Compound 353, N-[4-(2-Furyl)-5-(4-oxocyclohexylcarbonyl)thiazol-2-yl]-pyridine-4-carboxamide]"
20,108 to 115 °C,"Cc1cc(C(=O)Nc2nc(-c3ccco3)c(C(=O)C3CCC(=O)CC3)s2)ccn1 [Compound 354, N-[4-(2-Furyl)-5-(4-oxocyclohexylcarbonyl)thiazol-2-yl]-2-methylpyridine-4-carboxamide]"
21,232 to 235 °C,"O=C1CCC(C(=O)c2sc(NC(=O)c3ccco3)nc2-c2ccco2)CC1 [Compound 355, N-[4-(2-Furyl)-5-(4-oxocyclohexylcarbonyl)thiazol-2-yl]-furan-2-carboxamide]"

row,melting point,SMILES
1,176 to 183 °C,"COc1cccc(C(=O)Nc2nc(-c3ccco3)c(C(=O)C3CCC(=O)CC3)s2)c1 [Compound 356, N-[4-(2-Furyl)-5-(4-oxocyclohexylcarbonyl)thiazol-2-yl]-3-methoxybenzamide]"
2,211 to 212 °C,"N#Cc1ccc(C(=O)Nc2nc(-c3ccco3)c(C(=O)C3CCC(=O)CC3)s2)cc1 [Compound 357, 4-Cyano-N-[4-(2-furyl)-5-(4-oxocyclohexylcarbonyl)-thiazole-2-yl]benzamide]"
3,221 to 222 °C,"O=C(Nc1nc(-c2ccco2)c(C(=O)C2CCOCC2)s1)c1ccccc1 [Compound 362, N-[4-(2-Furyl)-5-(tetrahydropyran-4-ylcarbonyl)thiazol-2-yl]benzamide]"
4,204 to 206 °C,"Cc1ccccc1C(=O)Nc1nc(-c2ccco2)c(C(=O)C2CCOCC2)s1 [Compound 363, N-[4-(2-Furyl)-5-(tetrahydropyran-4-ylcarbonyl)thiazol-2-yl]-2-methylbenzamide]"
5,197 to 201 °C,"Cc1cccc(C(=O)Nc2nc(-c3ccco3)c(C(=O)C3CCOCC3)s2)c1 [Compound 364, N-[4-(2-Furyl)-5-(tetrahydropyran-4-ylcarbonyl)thiazol-2-yl]-3-methylbenzamide]"
6,181 to 184 °C,"COc1ccccc1C(=O)Nc1nc(-c2ccco2)c(C(=O)C2CCOCC2)s1 [Compound 366, N-[4-(2-Furyl)-5-(tetrahydropyran-4-ylcarbonyl)thiazol-2-yl]-2-methoxybenzamide]"
7,184 to 188 °C,"COc1ccc(C(=O)Nc2nc(-c3ccco3)c(C(=O)C3CCOCC3)s2)cc1 [Compound 368, N-[4-(2-Furyl)-5-(tetrahydropyran-4-ylcarbonyl)thiazol-2-yl]-4-methoxybenzamide]"
8,239 to 243 °C,"CN(C)c1cccc(C(=O)Nc2nc(-c3ccco3)c(C(=O)C3CCOCC3)s2)c1 [Compound 369, 3-(Dimethylamino)-N-[4-(2-furyl)-5-(tetrahydropyran-4-ylcarbonyl)thiazol-2-yl]benzamide]"
9,238 to 240 °C,"CN(C)c1ccc(C(=O)Nc2nc(-c3ccco3)c(C(=O)C3CCOCC3)s2)cc1 [Compound 370, 4-(Dimethylamino)-N-[4-(2-furyl)-5-(tetrahydropyran-4-ylcarbonyl)thiazol-2-yl]benzamide]"
10,172 to 176 °C,"O=C(Nc1nc(-c2ccco2)c(C(=O)C2CCOCC2)s1)c1ccccc1F [Compound 371, 2-Fluoro-N-[4-(2-furyl)-5-(tetrahydropyran-4-ylcarbonyl)-thiazol-2-yl]benzamide]"
11,229 to 231 °C,"O=C(Nc1nc(-c2ccco2)c(C(=O)C2CCOCC2)s1)c1cccc(F)c1 [Compound 372, 3-Fluoro-N-[4-(2-furyl)-5-(tetrahydropyran-4-ylcarbonyl)-thiazol-2-yl]benzamide]"
12,160 to 162 °C,"O=C(Nc1nc(-c2ccco2)c(C(=O)C2CCOCC2)s1)c1ccccc1Cl [Compound 374, 2-Chloro-N-[4-(2-furyl)-5-(tetrahydropyran-4-ylcarbonyl)-thiazol-2-yl]benzamide]"
13,210 to 212 °C,"O=C(Nc1nc(-c2ccco2)c(C(=O)C2CCOCC2)s1)c1cccc(Cl)c1 [Compound 375, 3-Chloro-N-[4-(2-furyl)-5-(tetrahydropyran-4-ylcarbonyl)-thiazol-2-yl]benzamide]"
14,221 to 224 °C,"N#Cc1ccccc1C(=O)Nc1nc(-c2ccco2)c(C(=O)C2CCOCC2)s1 [Compound 377, 2-Cyano-N-[4-(2-furyl)-5-(tetrahydropyran-4-ylcarbonyl)-thiazol-2-yl]benzamide]"
15,257 to 260 °C,"N#Cc1cccc(C(=O)Nc2nc(-c3ccco3)c(C(=O)C3CCOCC3)s2)c1 [Compound 378, 3-Cyano-N-[4-(2-furyl)-5-(tetrahydropyran-4-ylcarbonyl)-thiazol-2-yl]benzamide]"
16,231 to 234 °C,"N#Cc1ccc(C(=O)Nc2nc(-c3ccco3)c(C(=O)C3CCOCC3)s2)cc1 [Compound 379, 4-Cyano-N-[4-(2-furyl)-5-(tetrahydropyran-4-ylcarbonyl)-thiazol-2-yl]benzamide]"
17,131 to 134 °C,"O=C(Nc1nc(-c2ccco2)c(C(=O)C2CCOCC2)s1)c1ccccc1OC(F)(F)F [Compound 380, N-[4-(2-Furyl)-5-(tetrahydropyran-4-ylcarbonyl)thiazol-2-yl]-2-(trifluoromethoxy)benzamide]"
18,197 to 198 °C,"O=C(Nc1nc(-c2ccco2)c(C(=O)C2CCOCC2)s1)c1cccc(OC(F)(F)F)c1 [Compound 381, N-[4-(2-Furyl)-5-(tetrahydropyran-4-ylcarbonyl)thiazol-2-yl]-3-(trifluoromethoxy)benzamide]"
19,177 to 180 °C,"O=C(Nc1nc(-c2ccco2)c(C(=O)C2CCOCC2)s1)c1ccc(OC(F)(F)F)cc1 [Compound 382, N-[4-(2-Furyl)-5-(tetrahydropyran-4-ylcarbonyl)thiazol-2-yl]-4-(trifluoromethoxy)benzamide]"
20,109 to 112 °C,"CN(C)Cc1ccc(C(=O)Nc2nc(-c3ccco3)c(C(=O)C3CCOCC3)s2)cc1 [Compound 384, 4-(Dimethylaminomethyl)-N-[4-(2-furyl)-5-(tetrahydropyran-4-ylcarbonyl)thiazol-2-yl]benzamide]"
